≈ marks a conversion by molar mass, not a printed value. Where two headings read alike, the source gives them in different places. No end group written: not given here.
Columns and labels:
HepG2 cells [1] = test: cells; conditions: for EC50 (cellular antioxidant activity): 1 h
Protocol: Obtained from National Collection of Authenticated Cell Cultural (Shanghai, China), HepG2 cells between 20 and 35 passages were grown in medium (DMEM supplemented with 10% fetal bovine serum, 1% antibiotic–antimycotic solution) in a 5% CO2 incubator at 37 °C.
Cellular antioxidant activity (CAA) was determined according to the method of Wolfe et al.. HepG2 cells were seeded in 96-well plates (6 × 10^4 cells/well) and cultured for 24 h. DCFH-DA working solution (50 µL, 50 µM) and 50 µL of medium with sample (0.005–0.1 mg/mL) were added in the sample treated group. DCFH-DA working solution (50 µL, 50 µM) and sterile water (50 µL) were added to the control group and the blank group. After incubated for 1 h, the cells were washed with PBS. Then, AAPH working solution (100 µL, […]) was added to the sample treated group and the control group, and fresh medium was added to the blank group. Fluorescence values were determined every 5 min for 1 h at an excitation wavelength of 485 nm and a determination wavelength of 528 nm. […] The CAA unit was calculated by the area of fluorescence curve (AUC), as shown in Equation (3). […] The Trolox equivalent (TEAC µM TE/g peptides) was calculated to represent the CAA value. (3) CAA=[1−(AUCt−AUCo)/(AUCc−AUCo)]×100 where AUCt, AUCc, and AUCo were the fluorescence curve area of the test sample, the control, and the blank group, respectively.

HepG2 cells [2] = format: cell-based
Protocol: HepG2 cells were seeded in 96-well plates (1 × 10^4 cells/well) and cultured for 48 h. To the AAPH damage group, we added 150 µL of fresh medium containing AAPH (final concentration 0.025–25 mM), and to the control group, we added fresh medium without AAPH. After culturing for 24 h, cell viability was determined by the MTT method. HepG2 cells were seeded in 96-well plates (1 × 10^4 cells/well) and cultured for 24 h. To the sample treated group, we added 150 µL of fresh medium containing samples (0.025–0.2 mg/mL). To the control group and AAPH damage group, we added fresh medium without samples. After treating for 24 h, to the sample treated group and AAPH damage group, we added 50 µL of fresh medium containing AAPH (final concentrations of 0.25 and 10 mM). After culturing for 24 h, cell viability was determined.

HepG2 cells [3] = system: HepG2 cells; set-up: method as in 2 sources, ref 23 = [23]; PMID 28764069; doi:10.1016/j.foodchem.2017.05.144; 23. Liang R. Zhang Z. Lin S. Effects of pulsed electric field on intracellular antioxidant activity and antioxidant enzyme regulating capacities of pine nut ( Pinus koraiensis ) peptide QDHCH in HepG2 ||| ref 24 = [24]; PMID 29195889; doi:10.1016/j.foodres.2016.10.023; 24. Wang L. Ding L. Yu Z. Zhang T. Ma S. Liu J. Intracellular ROS scavenging and antioxidant enzyme regulating capacities of corn gluten meal-derived antioxidant peptides in HepG2 cells Food Res. Int.; conditions: related report, pine nut peptide; cited from earlier work
Source text: The principle of CAA is that intracellular lipase degrades the fluorescent probe DCFH-DA to DCFH, which is oxidized to fluorescent DCF by intracellular free radicals under AAPH induction, and the antioxidant peptide can protect the probe from oxidation. […] In related reports, ...

Molecule | EC50 (cellular antioxidant activity) (HepG2 cells [1]) [µg/mL] | cell viability, 50% cell viability model (HepG2 cells [2]; 24 h, 0.2 mg/mL) [%] | cell viability, 80% cell viability model (HepG2 cells [2]; 24 h, 0.2 mg/mL) [%] | also measured
N[C@@H](CCC(=O)N[C@@H](CS)C(=O)NCC(=O)O)C(=O)O [GSH, Glutathione, reference compound] |  |  |  | CAA Value (HepG2 cells [1]; HepG2, Trolox equivalent, Trolox as standard antioxidant): 4.593 mM TE/g Peptide; EC50 (HepG2 cells [1]; Homo sapiens, HepG2, 1 h, read-out: EC50 (cellular antioxidant activity)): 30 µg/mL (≈ 97.6 µM); cell viability, 50% cell viability model (HepG2 cells [2]; HepG2, AAPH-induced damage (0.25 mM as printed), sample 0.2 mg/mL 24 h then AAPH 24 h, MTT, AAPH damage group 49.51%): 57.60%; cell viability, 80% cell viability model (HepG2 cells [2]; HepG2, AAPH-induced damage (10 mM [sic]), sample 0.2 mg/mL 24 h then AAPH 24 h, MTT, AAPH damage group 79.41%): 92.08%
GGSIT [GGSIT] | 73 | 66.35 | 96.06 | 
GGSLT [GGSLT] | 64 | 68.25 |  | 
NSVAA [NSVAA] | 95 | 70.55 | 100.09 | 
QDHCH [pine nut peptide of a related report] |  |  |  | EC50 value (cellular antioxidant activity) (HepG2 cells [3]): 130 µg/mL
SGTAV [SGTAV] | 9 | 73.61 | 107.43 | 
SPSSS [SPSSS] | 27 | 73.52 | 101.09 | 
TGVAS [TGVAS] | 37 | 64.69 |  | 
